Experiment [1] concerns human pancreatic stellate cells (PSCs). Description: Human PSCs incubated with metformin in vitro (immunofluorescence, Western blot). It is filed as cell-based. On the procedure: Following treatment, cells were collected for RNA and protein extraction in order to perform subsequent analysis of gene expression of cytokines and polarization markers, and for analysis of signaling and metabolic pathways. […] Cells were collected for protein extraction for analysis of the activation of fibrosis-related pathways. […] The cells were fixed with 4% paraformaldehyde and blocked with 5% normal donkey serum for 1 h. They were incubated with the designated primary antibodies overnight at 4° C. then for 2 h with the appropriate secondary antibodies at RT. PBS was used for all washes and the stained samples were mounted with Prolong Gold with DAPI. Images were acquired using a confocal microscope. The antibodies used and image acquisition settings are described below. Both cell types were grown in Dulbecco's modified Eagle's medium (Sigma, St. Louis, Mo.) supplemented with 5% (v/v) heat inactivated fetal bovine serum (FBS; Sigma), 100 units/ml penicillin and streptomycin. Cells were cultured at 37° C. in a humidified atmosphere including 5% CO2.
Each tumor sample was homogenized directly in lysis buffer for protein extraction. 20 ug of denatured protein per sample was loaded on 7%, 10% and 12% SDS-polyacrylamide gels. Antibodies used: phospho-p38 MAPKT^180/Y182 and p38; phospho-JNK (SAPK/JNK)^Thr183/Tyr185 and JNK; phospho-AKT^Ser473 and AKT, phospho-ERK(p44/42 MAPK)^T202/Y204 and ERK; phospho-NF-κB^Ser536 and NK-κB; p65^Ser536; phospho-Smad2^Ser465/467 and Smad2; phospho-IGF-I Receptor β^Tyr1135 and IGF; Phospho-IRS-1^Ser612 and IRS; IR; phpspho-stat3^Tyr705 and stat3; Phospho-AMPKα^Thr172 and Ampkα; phospho-Ampkβ^Ser108 and Ampk; phospho-ACC^Ser79 and ACC; Phospho-PDGF Receptor β^Tyr751 and PDGF Receptor β and snail, c-cadherin and vimentin, TGF-β, β-catenin, twist, LC3B. All antibodies listed above were obtained from Cell Signaling Technology (Beverly, Mass.), and diluted 1:1000 with the exception of phospho-JNK (SAPK/JNK)^Thr183/Tyr185, Phospho-NF-κB p65^Ser536, phospho-Smad2^Ser465/467, phospho-IGF-I Receptor β^Tyr1135, Cleaved caspase-3, Phospho-IRS-1^Ser612. Other antibodies used were: αSMA and phospho-Insulin Receptor^Y972 (1:1000 and 1:500, Abcam, Mass.); col-1 (1:1000); MMP-9 and MMP-2 (1:500 and 1:200, EMD Millipore-Billerica, Mass.), AT1 (1:1000, LifeSpan BioSciences Inc, WA), ZEB1 (1:1000, Novus Biologicals, CO), and β-actin (1:5000, Sigma, Mo.). Quantification of protein expression relative to total receptor or β-actin was obtained using Image J software.

In another experiment the test system is human PSC viability. As to the kind of experiment: MTT viability assay on PSCs. It is filed as cell-based.

`CN(C)C(=N)N=C(N)N` [metformin, 3-(diaminomethylidene)-1,1-dimethylguanidine]: the “protein levels of MMP9 in PSCs” value in experiment [1] (metformin 0, 0.1, 1 and 10 mM, Western blot) was “decreased protein levels of MMP9”. In experiment [1] (metformin 1 mM, 48 h), the “expression of HA in PSCs” value is listed as “decreased” and the “expression of collagen-I in PSCs” value was “decreased”. In experiment [1] (metformin 0.1-1mM, Western blot), the “expression of AT1, TGF-β and downstream signaling via SMAD-2, PDGF-I3” value is listed as “reduced expression”. The “canonical signaling pathways ERK, p38 and STAT3” value in experiment [1] (relatively higher doses (1-10 mM)) is recorded as “affected canonical signaling pathways”. In the experiment with human PSC viability (48 h, MTT), the “doses at which metformin significantly reduces PSC viability” value is over 7.5 mM. The “viability of PSCs” value in the experiment on human PSC viability (metformin 1 mM) is “does not substantially affect the viability”.

The values are drawn from patent US20180064662A1 (THE GENERAL HOSPITAL CORPORATION, priority 2015, published 2018).
